Source: US11820747B2, “PPARG inverse agonists and uses thereof” (Flare Therapeutics Inc., priority 2021, dated 2023)

Legend:
[1] = target: T1, PPARG/RXRA LBD heterodimer (Homo sapiens, UniProt P37231); assay: PPARγ-NCOR1 recruitment assay (TR-FRET, biotinylated NCOR1 ID2 peptide); type: binding; details: for Emax: 3 h, maximal extent, T0070907 defined as 100%, DMSO 0%, read-out: % NCOR recruitment relative to T907; for EC50: TR-FRET, 80 nM Rosiglitazone, 3 hours incubation, read-out: PPARG-NCOR recruitment assay EC50
T1 construct: His-TEV-Q203-Y477: Uniprot ID P37231-2; made in house; host or cells: E. coli
Protocol: PPARγ-NCOR1 Recruitment Assay:
Compound potency (EC50) and maximal extent of NCOR1 recruitment to PPARG were assessed a TR-FRET binding assay measuring association of a biotinylated NCOR1 ID2 peptide (Biotin-[…]-amide) to PPARG/RXRA LBD heterodimer. Specifically, a 20 microliters of TR-FRET master mix consisting of 2 nM WT PPARG LBD (E. coli expressed, His-TEV-Q203-Y477: Uniprot ID P37231-2), 2 nM WT RXRA LBD or mutant S427F RXRA LBD (E. coli expressed, Flag-TEV-E228-T462; […]. Mixtures were incubated for 3 hours and read in an EnVision plate reader (Perkin Elmer) with […]. To determine the potency (EC50) and extent of NCOR1 recruitment, TR-FRET ratios were normalized to the average ratio of DMSO control wells (0%) and to the average maximum ratio for positive control compound (T0070907 (2-chloro-5-nitro-N-4-pyridinyl-benzamide); defined as 100%) in CDD Vault and analyzed using the Levenberg-Marquardt algorithm.
T1 sequence (O75376 2251-2273 partner, one chain of several): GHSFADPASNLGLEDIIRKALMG

[2] = target: T2, PPARG/RXRA LBD heterodimer (Homo sapiens, UniProt P37231); assay: PPARγ-MED1 blockade assay (TR-FRET, biotinylated MED1 LxxLL peptide); type: binding; details: for Emax: 3 h, maximal extent, GW9662 defined as 100%, DMSO 0%, read-out: % MED1 blockade relative to GW9662; for EC50: TR-FRET, 80 nM Rosiglitazone, 3 hours incubation
T2 construct: His-TEV-Q203-Y477; Uniprot ID P37231-2; made in house; host or cells: E. coli
T2 sequence (P37231 203-477 isoform P37231-2): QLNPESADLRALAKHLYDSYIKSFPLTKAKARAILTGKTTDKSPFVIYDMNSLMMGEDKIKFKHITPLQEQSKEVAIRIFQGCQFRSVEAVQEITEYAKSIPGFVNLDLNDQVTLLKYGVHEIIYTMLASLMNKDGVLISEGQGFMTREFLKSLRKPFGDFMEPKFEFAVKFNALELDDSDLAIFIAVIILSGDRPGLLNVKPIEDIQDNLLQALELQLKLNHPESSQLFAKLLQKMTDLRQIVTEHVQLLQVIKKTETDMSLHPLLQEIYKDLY
T2 sequence (P19793 228-462 partner limits assumed): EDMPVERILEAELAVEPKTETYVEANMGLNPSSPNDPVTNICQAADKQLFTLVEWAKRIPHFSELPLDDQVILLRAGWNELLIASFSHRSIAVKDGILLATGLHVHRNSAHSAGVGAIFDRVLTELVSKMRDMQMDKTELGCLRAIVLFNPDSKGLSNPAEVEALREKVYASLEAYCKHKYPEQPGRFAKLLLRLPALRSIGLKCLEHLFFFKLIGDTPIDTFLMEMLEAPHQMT
Protocol: PPARγ-MED1 Blockade Assay:
Compound potency (ICs) and maximal extent of MED1 repulsion to PPARG were assessed a TR-FRET binding assay measuring association of a biotinylated MED1 LxxLL peptide (Biotin-[…]-amide) to PPARG/RXRA LBD heterodimer. Specifically, a 20 microliters of TR-FRET master mix consisting of 2 nM WT PPARG LBD (E. coli expressed, His-TEV-Q203-Y477; Uniprot ID P37231-2), 2 nM WT RXRA LBD (E. coli expressed, Flag-TEV-E228-T462; […]. Mixtures were incubated for 3 hours and read in an EnVision plate reader (Perkin Elmer) with […]. To determine the potency (ICso) and extent of MED1 repulsion. TR-FRET ratios were normalized to the average ratio of DMSO control wells (0%) and to the average minimum ratio for positive control compound (GW9662 (2-chloro-5-nitrobenzanilide); defined as 100%/6) in CDD Vault and analyzed using the Levenberg-Marquardt algorithm.

[3] = tested on: ANGPTL4, a PPARG target gene, in HT1197 (RXRA S427F mutation) cells; assay: Bladder cancer pharmacodynamic assay, HT1197 cell assay (quantitative PCR of PPARG target genes); type: cell-based; details: Homo sapiens; for inhibition at 0.1 µM: 100 nM compound, 24 hours, percentage of a DMSO control; for EC50: 24 hours treatment, qPCR
Protocol: Bladder Cancer Pharmacodynamic Assay
5637 (PPARG amplified) and HT1197 (RXRA S427F mutation) cells were used for assessment of modulation of PPARG target genes using quantitative PCR. Cells were treated for 24 hours with PPARG inverse agonists prior to analysis of FABP4 (IDT, Cat: Hs.PT 58.20106818) and ANGPTL4 (IDT, Cat: Hs.PT 58.25480012) expression, with expression of the housekeeping gene TBP (IDT, Cat: Hs.PT 58v.39858774) used to normalize expression across samples. Quantitative PCR was performed using an ABI QuantStudio 7 Flex Reaction system. Data were analyzed and reported relative to DMSO control using the comparative Ct method (ΔΔCt).

SMILES	Emax [1] [%]	EC50 [1] [nM]	Emax [2] [%]	EC50 [2] [nM]	inhibition at 0.1 µM [3] [%]	EC50 [3] [nM]
CS(=O)(=O)c1ccc(C#N)cc1-c1cc(=O)c2c(F)cc(F)cc2[nH]1 [Example 1, 3-(5,7-difluoro-4-oxo-1,4-dihydroquinolin-2-yl)-4-(methylsulfonyl)benzonitrile]	> 100	100 to 1000	> 100	100 to 1000	88	1.3
CCS(=O)(=O)c1ccc(C#N)cc1-c1cc(=O)c2c(F)cc(F)cc2[nH]1 [Example 2, 3-(5,7-difluoro-4-oxo-1,4-dihydroquinolin-2-yl)-4-(ethylsulfonyl)-benzonitrile]	> 100	100 to 1000	> 100	100 to 1000	86	–
CN1CCN(c2c(F)cc3[nH]c(-c4cc(C#N)ccc4S(C)(=O)=O)cc(=O)c3c2F)CC1 [Example 3, 3-(5,7-difluoro-6-(4-methylpiperazin-1-yl)-4-oxo-1,4-dihydroquinolin-2-yl)-4-(methylsulfonyl)-benzonitrile]	> 100	100 to 1000	> 100	100 to 1000	66	–
N#Cc1ccc(S(=O)(=O)CC(F)(F)F)c(-c2cc(=O)c3c(F)cc(F)cc3[nH]2)c1 [Example 4, 3-(5,7-difluoro-4-oxo-1,4-dihydroquinolin-2-yl)-4-((2,2,2-trifluoroethyl)sulfonyl)-benzonitrile]	> 100	100 to 1000	> 100	100 to 1000	14	–
N#Cc1ccc([S+]([O-])CC(F)(F)F)c(-c2cc(=O)c3c(F)cc(F)cc3[nH]2)c1 (centres unmarked) [Example 5]	> 100	1000 to 10000	> 100	1000 to 10000	15	–
CSc1ccc(C#N)cc1-c1cc(=O)c2c(F)cc(F)cc2[nH]1 [Example 6, 3-(5,7-difluoro-4-oxo-1,4-dihydroquinolin-2-yl)-4-(methylthio)benzonitrile]	–	> 10000	–	> 10000	17	–
C[S+]([O-])c1ccc(C#N)cc1-c1cc(=O)c2c(F)cc(F)cc2[nH]1 (centres unmarked) [Example 7, 3-(5,7-difluoro-4-oxo-1,4-dihydroquinolin-2-yl)-4-(methylsulfinyl)benzonitrile]	> 100	1000 to 10000	> 100	> 10000	26	–
CS(=N)(=O)c1ccc(C#N)cc1-c1cc(=O)c2c(F)cc(F)cc2[nH]1 (centres unmarked) [Example 8, 3-(5,7-difluoro-4-oxo-1,4-dihydroquinolin-2-yl)-4-(S-methylsulfonimidoyl)benzonitrile]	> 100	100 to 1000	> 100	100 to 1000	84	–
CS(=O)(=O)c1ccc(C#N)cc1-c1cc(=O)c2ccc(Cl)cc2[nH]1 [Example 9, 3-(7-chloro-4-oxo-1,4-dihydroquinolin-2-yl)-4-(methylsulfonyl)benzonitrile]	> 100	10 to 100	> 100	10 to 100	85	0.9
CS(=O)(=O)c1ccc(C#N)cc1-c1cc(=O)c2c(F)cc(Cl)cc2[nH]1 [Example 10]	> 100	10 to 100	> 100	10 to 100	89	1.6
N#Cc1ccc(S(=O)(=O)C(F)(F)F)c(-c2cc(=O)c3c(F)cc(F)cc3[nH]2)c1 [Example 11]	> 100	< 10	> 100	< 10	88	0.07
CC(C)S(=O)(=O)c1ccc(C#N)cc1-c1cc(=O)c2c(F)cc(F)cc2[nH]1 [Example 12, 3-(5,7-difluoro-4-oxo-1,4-dihydroquinolin-2-yl)-4-(isopropylsulfonyl)benzonitrile]	< 100	> 10000	< 100	> 10000	67	–
CC(C)CS(=O)(=O)c1ccc(C#N)cc1-c1cc(=O)c2c(F)cc(F)cc2[nH]1 [Example 13, 3-5,7-difluoro-4-oxo-1,4-dihydroquinolin-2-yl-4-(isobutylsulfonyl)benzonitrile]	< 100	1000 to 10000	< 100	1000 to 10000	77	–
Cn1cc(-c2c(F)cc3[nH]c(-c4cc(C#N)ccc4S(C)(=O)=O)cc(=O)c3c2F)cn1 [Example 14]	> 100	10 to 100	> 100	10 to 100	89	–
Cc1ccc(-c2c(F)cc3[nH]c(-c4cc(C#N)ccc4S(C)(=O)=O)cc(=O)c3c2F)cn1 [Example 15, 3-(5,7-difluoro-6-(6-methylpyridin-3-yl)-4-oxo-1,4-dihydroquinolin-2-yl)-4-(methylsulfonyl)benzonitrile]	> 100	10 to 100	> 100	10 to 100	68	–
